Read-outs that look alike come from different tables or passages of the source.
Key:
HOG-GSC cells = test: Comparison of cell viability in brain tumor stem cell (MTS assay); assay type: cell-based; conditions: 72 hours, DMSO control = 1, value below 0.5 = viability decreased by 50% or more
Method: HOG-GSC cells which are brain tumor stem cells were treated with 11 compounds at 10 μM and DMSO as a control group, and the number of surviving cells after 72 hours was evaluated by MTS assay.
HOG-GSC which is a brain tumor stem cell was seeded on a 96-well plate at 5000 cells per well, and was cultured in an incubator (ThermoFisher) at 37° C. and 5% CO2 for 24 hours for stabilization of cells. Thereafter, it was treated with 11 compounds of the present invention at […] each, and treated with the same volume of DMSO as a control group as the volume of each compound. After treatment with the compound of the present invention and the control group, cells were cultured in an incubator at 37° C. and 5% CO2 for 72 hours. Thereafter, since there were many living cells in each well, cell viability was quantified using a cell viability assay kit (LPS solution) of which the color becomes darker with an increase in the number of cells. After treatment with the cell viability assay solution, a reaction was performed in an incubator at 37° C. and 5% CO2 for 3 hours to perform coloration, absorbance at 450 nm was measured using a microplate reader (BioTek), and an absorbance intensity of the control group was set to 1 and the absorbance of cells treated with each compound was normalized and is shown in FIG. 2.

HOG-GSC = test: Cell viability analysis depending on the concentration of Compound 11; assay type: cell-based; conditions: 0.078-20 μM, 72 hours
Method: HOG-GSC which is a brain tumor stem cell was seeded on a 96-well plate at 5000 cells/well, treated with Compound 11 (Example 11) at concentrations of 20 μM, 10 μM, 5 μM, 2.5 μM, 1.25 μM, 0.625 μM, 0.312 μM, 0.156 μM, and 0.078 μM repeatedly 3 times after 24 hours, and treated with the same volume of DMSO as a control group repeatedly 3 times. After the treatment, cells were cultured for 72 hours in an incubator (ThermoFisher) at 37° C., 5% Co2. Thereafter, since there were many living cells in each well, the cell viability depending on the concentration of Compound 11 (Example 11) was compared using a cell viability assay kit (LPS solution) of which the color becomes darker with an increase in the number of cells. Further, absorbance at 450 nm was measured using a microplate reader (BioTek), and absorbance at each concentration was normalized based on the absorbance intensity of the control group of 1 and is shown in FIG. 4.

[1] = In vivo PK test, drug concentration in plasma after oral or intravenous administration; conditions: CRljOri:CD1(ICR), mouse, plasma
Method: • Experimental Drug: Compound 11 • Excipient: 10% DMSO, 75% PEG400, 15% saline 1.2. Experimental system • mouse, CRljOri:CD1(ICR), SPF 6 weeks old (7 weeks old at the time of administration) 1.3. Administration route • oral administration (PO), intravenous administration (IV) 1.4. Administration method and number of administration
After obtaining the mouse, the mouse was acclimatized for 5 days, and used in the experiment. An administration dose was 25 mg/kg by oral administration and 5 mg/kg by intravenous administration. A dosage for each individual was calculated based on the weight after fasting (on the day of administration), and the drug was orally administered once to an oral administration (PO) group using a disposable syringe (1 mL) with a zonde for oral administration attached, and intravenously administered to the tail vein of an intravenous administration (IV) group using a disposable syringe (1 mL).
About 0.3 mL of blood was collected from a jugular vein with a 1 mL syringe (25G) treated with 3.8% sodium citrate (about 30˜40 μl), placed in one microtube (QSP, 1.5 mL), and centrifuged at 12,000 RPM/3 min to collect plasma. The plasma was frozen and stored at −80° C. until analysis, and all animals of a pharmacokinetic experiment group were euthanized after completing the blood collection.
580 μl of acetonitrile (including internal standard) was added to 20 μl of plasma/tissue, and centrifugation was performed at 4° C. at 15,000 rpm for 5 minutes with vortexing. A supernatant obtained after the centrifugation was analyzed with LC-MS/MS.
PK parameter was calculated as a non-compartmental analysis model, using a phoenix WinNonlin 6.4 version (Pharsight, USA) program.

[2] = iv, 5 mg/kg, intravenous 5 mg/kg, read-out: Drug concentration in plasma, Average
[3] = iv, 5 mg/kg, intravenous 5 mg/kg, read-out: Drug concentration in plasma, Individual
[4] = po, 25 mg/kg, oral 25 mg/kg, read-out: Drug concentration in plasma, Average

concentration at 0.08 h [1, 2]: 2560 ng/mL | concentration at 0.08 h [1, 3]: 2820 ng/mL | concentration at 0.25 h [1, 2]: 2540 ng/mL | concentration at 0.25 h [1, 3]: 2600 ng/mL | concentration at 0.5 h [1, 2]: 2260 ng/mL | concentration at 0.5 h [1, 3]: 2790 ng/mL | concentration at 1 h [1, 2]: 2100 ng/mL | concentration at 1 h [1, 3]: 2590 ng/mL | concentration at 2 hr ([1]; iv, 5 mg/kg, intravenous 5 mg/kg, 2 hr, read-out: Drug concentration in plasma, Average): 1570 ng/mL | concentration at 2 hr ([1]; iv, 5 mg/kg, intravenous 5 mg/kg, 2 hr, read-out: Drug concentration in plasma, Individual): 1130 ng/mL | concentration at 4 h [1, 2]: 1280 ng/mL | concentration at 4 h [1, 3]: 1050 ng/mL | concentration at 6 h ([1]; iv, 5 mg/kg, intravenous 5 mg/kg): 652 ng/mL | concentration at 8 h [1, 2]: 575 ng/mL | concentration at 8 h [1, 3]: 424 ng/mL | concentration at 24 h ([1]; iv, 5 mg/kg, intravenous 5 mg/kg, BQL = <1 ng/ml, ND = not detectable, read-out: Drug concentration in plasma, Individual): 1.9 ng/mL | concentration at 24 h [1, 2]: 1.8 ng/mL | concentration at 0.25 h [1, 4]: 2910 ng/mL | concentration at 0.5 h [1, 4]: 4420 ng/mL | concentration at 1 h [1, 4]: 3770 ng/mL | concentration at 2 h ([1]; po, 25 mg/kg, oral 25 mg/kg, 2 hr): 3870 ng/mL | concentration at 4 h [1, 4]: 3540 ng/mL | concentration at 6 h ([1]; po, 25 mg/kg, oral 25 mg/kg): 5440 ng/mL | concentration at 8 h [1, 4]: 5020 ng/mL
Compound: CC(C)(C)c1ccc(-c2cc(/C=C3\SC(=O)NC3=O)ccn2)cc1 [Compound 11, (Z)-5-((2-(4-(tert-butyl)phenyl)pyridin-4-yl)methylene)thiazolidine-2,4-dione]
cell viability inhibition effect (normalized MTS value) (HOG-GSC cells): significant cell viability inhibition effect | cell viability of HOG-GSC compared with DMSO control (HOG-GSC): significantly decreased | concentration dependence of HOG-GSC cell viability (HOG-GSC): decreased in proportion to the concentration

Source: patent US20250066347A1, “SUBSTITUTED THIAZOLIDINEDIONE DERIVATIVE COMPOUND, AND PHARMACEUTICAL COMPOSITION FOR PREVENTING OR TREATING CANCER, COMPRISING SAME” (MEDIFIC, INC., priority 2021, published 2025)
